According to US5443827A, “Fibrin-targeted inhibitors of thrombin” (President and Fellows of Harvard College, priority 1993, dated 1995):

Experiments:
[1] = molecular target: T1, thrombin (Homo sapiens, UniProt P00734); experiment: β-Peptide assay (thrombin inhibition as a function of binding to immobilized β-peptide); format: biochemical; details: fitted parameter ± SD
Procedure: 96-well microtiter plates were coated overnight at 4° C. with β-peptide. 100 μl coating buffer (20 mM Tris, 50 mMNaCl, 1 mM CaCl2, 1 mM MgC2, pH 7.4) containing 0.005 mg β-peptide were applied to each well. After coating, the microtiter plate was first washed 5 times with coating buffer supplemented with 0.05% Tween 20 and then three times with water. Free binding sites were blocked overnight at 4° C. by the addition of 250 μl bovine serum albumin (2% w/v in coating buffer) per well. […]
After washing 7 times with modified coating buffer (20 mM Tris, 0.5 M NaCl2, 1 mM CaCl2, 1 mM MgCl2, 0.2% Tween 20, pH 7.4) and three times with water, 100 μl of assay buffer (20 mMNaHPO4, 0.15M NaCl, 0.1% BSA, pH 7.4) were applied per well and 20 μl (1.25 U/ml) of thrombin solution were allowed to incubate for 1 h at room temperature. Then 50 μl of chromogenic substrate (S-2238 at 0.83 mg/ml) were applied and after 20 minutes, the reaction was stopped by addition of 50 μl of 20% acetic acid, and the resulting absorption read at 405 nm. Hirudin activity was detected as inhibition of thrombin activity and was expressed as % inhibition of total thrombin activity applied. […]

[2] = molecular target: T1, thrombin; experiment: Fibrin-Sepharose assay (thrombin inhibition as a function of binding to immobilized fibrin); format: biochemical; details: 800 units applied
Procedure: This assay is as described by Bode et al., J. Biol. Chem. 262:10819-10823, 1987, herein incorporated by reference, with the following modifications. For the purposes of assaying targeted anti-thrombin activity, trace labeling of fibrin-monomer is not necessary. 200 μl fibrin-Sepharose were incubated for 2.5 h at room temperature with defined amounts (by the S-2238 assay) of hirudin or hirudin-59D8-conjugate (hirudin-59D8-IgG or, alternatively, hirudin-59D8-Fab') in 100 μl of buffer. After washing the fibrin-Sepharose three times with 3 ml 0.15M NaCl, 200 μl S-2238 assay buffer and 40 μl (0.05 U) thrombin solution (1.25 U/ml) were added and incubated for 1 h at room temperature. Subsequently 100 μl of chromogenic substrate S-2238 were added, and the reaction was stopped after 25 min by addition of 100 μl 20% acetic acid. After centrifugation (5 min, 1,000×g), absorption of the supernatant was read at 405 nm. Hirudin activity was again detected as inhibition of thrombin activity and was expressed as % of total thrombin activity applied. […]

[3] = test system: fibrin formation on the surface of a plasma clot; experiment: Inhibition of thrombus growth in a fibrinogen solution; format: biochemical, human; details: for 3 h; FIG. 4A
Procedure: The method of Runge (Runge et al., Biochemistry 27:1153-1157, 1988, herein incorporated by reference) was followed, with the following modifications. Fresh-frozen plasma obtained from 5 donors was pooled, aliquoted and refrozen. Before each experiment, plasma was ultracentrifuged at 30,000 rpm for 60 min in a Beckmann SW 40 rotor in order to obtain platelet-free plasma (platelet count less than 1,000 platelets/μl). Immediately before each experiment, the anti-thrombin activities of hirudin and hirudin conjugate were calibrated using the S-2238 assay (i.e., the inhibition of thrombin peptidase activity by hirudin and its conjugates was determined, and appropriate dilutions were made so that the inhibition of thrombin peptidase activity was identical for each sample). […] The radioactivity level of each was then determined and only clots within 5% of the mean value were used for experiments.
(§1) After counting, clots were resuspended in 100 μl TBS (0.1M Tris, 0.1M NaCl, pH 7.4). […] At predetermined intervals, clots were removed from the test tube, washed three times with 2 ml 0.15M NaCl and assayed for radioactivity. Clots incubated without thrombin inhibitor (NaCl-controls) often could not be quantitatively removed from the incubation vial because of complete clotting of the assay mixture. […]

[4] = test system: fibrin deposition on the surface of a clot suspended in human plasma; experiment: Inhibition of thrombus growth in human plasma; format: biochemical
Procedure: The method of Runge (Runge et al., Biochemistry 27:1153-1157, 1988, herein incorporated by reference) was followed, with the following modifications. Fresh-frozen plasma obtained from 5 donors was pooled, aliquoted and refrozen. Before each experiment, plasma was ultracentrifuged at 30,000 rpm for 60 min in a Beckmann SW 40 rotor in order to obtain platelet-free plasma (platelet count less than 1,000 platelets/μl). Immediately before each experiment, the anti-thrombin activities of hirudin and hirudin conjugate were calibrated using the S-2238 assay (i.e., the inhibition of thrombin peptidase activity by hirudin and its conjugates was determined, and appropriate dilutions were made so that the inhibition of thrombin peptidase activity was identical for each sample). Platelet-free plasma clots were made by adding to plasma, in the following sequence: ^125 I-labelled human fibrinogen (20,000 cpm/ml plasma), 0.5M CaCl2 (final concentration 0.05M) and thrombin (0.5 NIH units/ml plasma). Immediately after the addition of thrombin, the solution was drawn into silastic tubing (i.d. 4 mm) and allowed to clot for 2 h at 37 ° C. The tubing was then cut into 1.8 cm sections yielding clots of approximately 0.2 ml. The clots were removed from the tubing, and each was placed in a plastic vial and washed three times with 2 ml 0.15M NaCl. The radioactivity level of each was then determined and only clots within 5% of the mean value were used for experiments.
as §1, with “7.4). Experiments were initiated by the addition of 100 μl hirudin or conjugate solution containing defined amounts of anti-thrombin activity.” for “7.4).”

[5] = molecular target: T1, thrombin; details: r-Hirudin as obtained from Knoll AG; cited from earlier work

hirudin
B1, ultimate thrombin inhibition ([1]; FIG. 2A): 4.3±0.5% | ultimate inhibition (B1) ([1]; FIG. 2B): 0% | thrombin inhibition [2]: 32.3% | concentration giving complete inhibition of fibrin formation [3]: 80 ATU/ml | fibrin deposition lower than NaCl control ([4]; at 10 ATU/ml, FIG. 6A): 17 µg | fibrin deposition lower than NaCl control ([4]; at 100 ATU/ml, p=0.0001): 112 µg | fibrin deposition compared with the mixture at 9 ATU/ml ([4]; hirudin at 44 ATU/ml, p=0,003, FIG. 7): lower | specific activity [5]: 17,000 anti-thrombin units (ATU)/mg
